Measurements from patent publication US12029713B2, “Compositions and methods for the treatment of brain injury” (THE CHILDREN'S HOSPITAL OF PHILADELPHIA, priority 2013, dated 2024).

Assays:
[1] = within one hour of administration; cited from earlier work
[2] = system: fluid percussion injury mice; assay: Conditioned fear response (CFR) after fluid percussion injury, GTA oral gavage; type: in vivo, mouse; conditions: 5 mg/kg oral gavage for 5 days, CFR on day 7 (FIG. 5)
Experimental: A fluid percussion injury assay was performed. Briefly, a craniotomy was performed on anesthetized mice using a 3 mm trephine and a Luer-Hoc needle hub attached to the skull and capped. The following day, a fluid percussion injury device was employed to deliver a pulse of saline through the hub at a pressure between 1.4-2.14 atm, producing a mild to moderate percussion injury. Sham animals received all anesthesia and surgical procedures except for the fluid pulse.
Mice were allowed to recover for one day. Mice were then treated with 5 mg/kg of glyceryl triacetate (GTA) via oral gavage for 5 days. The conditioned fear response (CFR) assay was performed on day 7.

CC(=O)OCC(COC(C)=O)OC(C)=O [GTA, glyceryl triacetate]
increase of acetate levels in the brain [1]: over 15 fold
fear response (CFR) compared to mice receiving the brain injury without treatment [2]: statistically superior
